Entries after “also recorded” stand apart in the source; their conditions may differ. Like-named read-outs stand apart in the source and are kept apart here.
Tests used:
[1] = test system: 47× CAG RNA foci in U-2OS cells; experiment: Live-cell reporter assay of RNA foci (MS2CP-YFP) in U-2OS cells; type: cell-based
Experimental: (§1) A monoclonal U-20S cell line stably expressing Tet-On 3G transactivator protein (Clontech) and a tandem-dimeric MS2 hairpin binding protein tagged with enhanced YFP (MS2CP-YFP) was generated via sequential lentiviral infection and selection. This stable cell line was transduced with repeat-containing plasmids under doxycyclinetetracycline-inducible promoter. […] Cell lines were tested for mycoplasma contamination using a standard PCR kit (LookOut Mycoplasma PCR Detection Kit, Sigma) and verified routinely by live-cell DNA staining.
(§2) RNA expression was induced by adding 1,000 ng/mL doxycycline for 12-48 hours, or as indicated. Before imaging, the culture medium was replaced with DMEM with 25 mM HEPES pH 7.5 or FluoroBrite DMEM (Invitrogen) with serum and antibiotics as listed above. For long-term imaging (>2 hours), cells were placed in a live-cell imaging chamber supplemented with 5% CO2. Cells were imaged using a spinning disk confocal microscope (Nikon Ti-Eclipse equipped with a Yokogawa CSU-X spinning disk module) using a×100, 1.49 numerical aperture oil immersion objective and an air-cooled EM-CCD. For each experimental condition, at least 30 randomly chosen cells were imaged and analyzed. Each datum point in the bar graphs represents one cell. Data shown are representative of three or more independent replicates.
(§3) ATP depletion was achieved by rinsing cells twice in DMEM without glucose (Gibco), followed by incubation for 10 minutes in the ATP depletion medium (DMEM without glucose with 1% (v/v) dialyzed FBS (Gibco), 10 mM sodium azide and 6 mM 2-deoxy-D-glucose). Doxorubicin (stock, 10 mM in dimethylsulfoxide (DMSO)) was diluted to the desired concentration in cell culture medium and added to cells pre-induced with doxycycline for 24 hours. Cells were incubated with doxorubicin or an equivalent dilution of DMSO only as control, for 2 hours, and imaged as described above. Ammonium acetate (stock, 5 N) was diluted to 200 mM in cell culture medium. This intermediate dilution (2×) was added to cells pre-induced with doxycycline for 24 hours to achieve a final concentration of 100 mM of ammonium acetate. Cells were incubated in this medium for 10 minutes at 37° C. Normal cell culture medium was replaced after treatment, and cells were imaged immediately or 1 hour after medium replacement. For treatment with ASO, cells pre-induced with doxycycline for 48 hours were transfected with 100 nM final concentration of ASO using either Lipofectamine RNAiMAX (Invitrogen) or TranslT-Oligo Transfection Reagent (Mirius Bio) according to the manufacturers' recommended protocols. Similar results were obtained with both transfection reagents. Cells were imaged 12 hours after transfection.
A fluorescence-intensity and size-based threshold was used to identify RNA foci. Briefly, U-2OS cells expressing the RNA of interest together with MS2CP-YFP were imaged using a spinning disk confocal microscope, and 0.3 μm Z-stacks were acquired. […] The nuclei were manually segmented, and the mean YFP fluorescence intensity in the nucleus was manually determined. RNA foci were identified using the FIJI 3D Objects Counter plugin, with an intensity threshold as 1.6x the mean fluorescence intensity in the nucleus of the cell, and a size cut-off of more than 50 adjoining pixels (pixel size, 83 nm×83 nm). […] This method was used to determine the number, volume, surface area, and the fluorescence intensity of the foci.

[2] = test system: nuclear speckles (SC-35); type: cell-based
Experimental: as §3, with “Similar results were obtained with both transfection reagents.” left out
Hybridization and wash buffers were purchased from Biosearch Technologies and used according to the manufacturer's protocol. For immunofluorescence detection of proteins, methanol-fixed cells were stained using antibodies against muscleblind-like-1 (MBNL1, Abcam, ab45899), hnRNP H (Abcam, ab10374), SC-35 (Abcam, ab11826), coilin (ab87913), fibrillarin (Abcam, ab5821), PML (Abcam, ab179466), and a corresponding Alexa Fluor 647-labelled secondary antibody (Invitrogen A-21236 or Invitrogen A-21244). Samples were co-stained with an anti-green fluorescent protein (GFP) booster antibody (GBA488, Bulldog Bio) to visualize RNA foci. After labelling, samples were mounted in Prolong Gold antifade medium (Thermo Scientific) and imaged using confocal microscopy as described above.

[3] = test system: 47× CAG RNA foci in U-2OS cells; experiment: RNA FISH with probe against MS2 hairpin loops in U-2OS cells; type: cell-based
Experimental: For RNA FISH in U-2OS cells, cells expressing the desired RNA (induced for 24 hours) were fixed with 2% paraformaldehyde for 10 minutes at room temperature and permeabilized by overnight incubation in 70% ethanol at 4° C. Alternatively, cells were fixed and permeabilized by incubation for 10 minutes in methanol with 10% (v/v) acetic acid. Similar results were obtained with both fixation protocols. Fixed and permeabilized cells were either used immediately, or stored in the permeabilization medium at −20° C. until needed. RNA was detected using Cy3-labelled DNA oligonucleotides designed against the MS2-hairpin sequence.

[4] = test system: 47× CAG RNA; experiment: In vitro RNA phase separation/gelation assay (fluorescence micrographs, index of dispersion); type: biochemical; conditions: for 47× CAG RNA clustering in vitro: 100 mM ammonium acetate (NH4OAc); for 47× CAG RNA clustering / gel formation in vitro: doxorubicin added to pre-formed clusters (37° C., 1 hour) or pre-mixed before annealing
Experimental: For phase separation/gelation assays, RNAs were diluted to concentrations of 0.5 ng/μL to 0.5 μg/μL in 10 mM Tris pH 7.0, 10 mM MgCl2, 25 mM NaCl buffer, unless indicated otherwise. Nuclease-free buffer stocks were purchased from Ambion. RNA was denatured at 95° C. for 3 minutes and cooled down at 1-4° C. per minute to 37° C. final temperature in a thermocycler and imaged immediately. Samples were visualized using a custom spinning disk confocal microscope (Nikon Ti-Eclipse equipped with a Yokogawa CSU-X spinning disk module) using a×100, 1.49 numerical aperture oil immersion objective and an air-cooled EM-CCD (electron multiplying charge-coupled device). The extent of phase separation/gelation was quantified by the index of dispersion (σ^2/μ) of fluorescence intensity per pixel (pixel size 83 nm×83 nm). Briefly, variance in the fluorescence intensity per image was determined, and normalized to the mean fluorescence intensity in the solution phase of the RNA. For dilute solution (<10% of imaging area occupied with clusters), this parameter reports the extent of inhomogeneity in the sample. At least 20 independent imaging areas (about 1,800 μm^2 each) were analyzed for each condition to achieve a representative measure across the sample. Each datum point in the bar graphs represents one imaging area. Data shown are representative of three or more independent replicates, across two or more independent RNA preparations.
For antisense DNA-mediated repression of RNA phase separation, 47×CAG RNA (200 ng/μL or 2.4 μM) was incubated with the ASO at 20 μM final concentration, followed by heat denaturation and annealing as described above. Doxorubicin was purchased from Cell Signaling Technology (catalogue number 5927). For in vitro experiments, doxorubicin was added to pre-formed RNA clusters, and samples were incubated at 37° C. for 1 hour. Alternatively, doxorubicin and RNA were pre-mixed at indicated concentrations before annealing. Similar results were obtained in both cases.

[5] = test system: 29× GGGGCC RNA foci in U-2OS cells; experiment: Live-cell reporter assay of GGGGCC RNA foci in U-2OS cells; type: cell-based
Experimental: as §1
as §2, with “replicates. […]” for “replicates.”
A fluorescence-intensity and size-based threshold was used to identify RNA foci. […] The nuclei were manually segmented, and the mean YFP fluorescence intensity in the nucleus was manually determined. RNA foci were identified using the FIJI 3D Objects Counter plugin, with an intensity threshold as 1.6x the mean fluorescence intensity in the nucleus of the cell, and a size cut-off of more than 50 adjoining pixels (pixel size, 83 nm×83 nm). […] This method was used to determine the number, volume, surface area, and the fluorescence intensity of the foci.

[6] = 2.5 μM doxorubicin for 2 hours, listed as Doxorubicin

SMILES: CO[C@H]([C@H](O)CC(=O)[C@@H](C)[C@@H](O)CC[C@@H](C)[C@@H]1O[C@]2(CC[C@@H](C)[C@H](CC[C@H](C)C(C)=O)O2)CC[C@@H]1C)[C@H](OC(=O)C[C@@H](O)C1=C(C)C(=O)OC1=O)C(C)C [tautomycin]
- 47× CAG RNA foci in cells ([1]; 2 μM tautomycin for 4 hours): disrupts the 47× CAG RNA foci; also recorded: disrupted
- nuclear speckles ([2]; 2 μM tautomycin for 4 hours): disruption of nuclear speckles; also recorded: disrupted

SMILES: CC(=O)O.N [ammonium acetate]
- 47× CAG RNA foci by RNA FISH ([3]; 100 mM NH4OAc): disrupted
- 47× CAG RNA foci in cells [1]: disappearance of 47× CAG RNA foci within minutes; also recorded: disrupted
- nuclear speckles [2]: disrupted
- 47× CAG RNA clustering in vitro [4]: not observed
- 47× CAG RNA clustering in vitro ([4]; listed as NH4OAc): prevents 47× CAG RNA clustering
- 29× GGGGCC RNA foci in cells ([5]; NH4OAc, same cell before and 300 s after treatment): disrupted
- 29× GGGGCC RNA foci in cells ([5]; NH4OAc, same cell before and 300 s after treatment, listed as NH4OAc): disrupting 29× GGGGCC RNA foci

SMILES: COc1cccc2c1C(=O)c1c(O)c3c(c(O)c1C2=O)C[C@@](O)(C(=O)CO)C[C@@H]3O[C@H]1C[C@H](N)[C@H](O)[C@H](C)O1 [doxorubicin]
- 47× CAG RNA foci by RNA FISH ([3]; 2.5 μM doxorubicin): disrupted
- 47× CAG RNA foci in cells ([1]; 2.5 μM doxorubicin for 2 hours): specifically abrogated the 47× CAG RNA foci
- 47× CAG RNA foci in cells [1, 6]: potently dissolved the 47× CAG nuclear foci in cells
- concentration of doxorubicin required to disrupt RNA foci in cells ([1]; U-2OS cells, 47× CAG): 2.5 µM
- nuclear speckles ([2]; 2.5 μM doxorubicin for 2 hours): not disrupted
- nuclear speckles [2, 6]: without disrupting nuclear speckles
- 47× CAG RNA clustering / gel formation in vitro [4]: prevents 47× CAG RNA clustering
- 47× CAG RNA clustering / gel formation in vitro ([4]; listed as Doxorubicin): blocked the formation of CAG RNA gels in vitro; also recorded: disrupted 47× CAG RNA clustering in vitro in a dose-dependent manner
- concentration of doxorubicin needed to disrupt RNA clusters in the in vitro experiments ([4]; in vitro): about 1 mM
- 29× GGGGCC RNA foci in cells ([5]; doxorubicin): disrupting 29× GGGGCC RNA foci; also recorded: disrupted

SMILES: [Cl-].[Na+] [NaCl]
- clustering of 47× CAG RNA in presence of NaCl ([4]; NaCl): inhibited

Source: US20190218613A1, “METHODS OF DETECTING THE FORMATION OF CELLULAR CLUSTERS OF RNA” (The Regents of the University of California, priority 2017, published 2019)
